In patent US4032625A, “Bone-seeking technetium-99m complex” (priority 1975, dated 1977):
Where two headings read alike, the source gives them in different places.

Conditions: 2 Hrs

[85Sr] [^85 Sr]
% Dose in Whole Organ: Blood (0.01 mg/kg AEDP): 2.99 % Dose
% Dose in Whole Organ: Kidneys (0.01 mg/kg AEDP): 0.329 % Dose
% Dose in Whole Organ: Liver (0.01 mg/kg AEDP): 0.568 % Dose
% Dose in Whole Organ: Marrow (0.01 mg/kg AEDP): 0.465 % Dose
% Dose in Whole Organ: Muscle (0.01 mg/kg AEDP): 4.98 % Dose
% Dose in Whole Organ: W. Femur (0.01 mg/kg AEDP): 3.22 % Dose
% Dose in Whole Organ: W. Tibia (0.01 mg/kg AEDP): 2.71 % Dose
% Dose/1% Body weight: Blood (0.01 mg/kg AEDP): 0.427 % Dose/1% Body weight
% Dose/1% Body weight: Bone Ave (0.01 mg/kg AEDP): 10.33 % Dose/1% Body weight
% Dose/1% Body weight: Femur (0.01 mg/kg AEDP): 10.38 % Dose/1% Body weight
% Dose/1% Body weight: Kidneys (0.01 mg/kg AEDP): 0.567 % Dose/1% Body weight
% Dose/1% Body weight: Liver (0.01 mg/kg AEDP): 0.177 % Dose/1% Body weight
% Dose/1% Body weight: Marrow (0.01 mg/kg AEDP): 0.211 % Dose/1% Body weight
% Dose/1% Body weight: Muscle (0.01 mg/kg AEDP): 0.116 % Dose/1% Body weight
% Dose/1% Body weight: Pelvis (0.01 mg/kg AEDP): 10.66 % Dose/1% Body weight
% Dose/1% Body weight: Spine (0.01 mg/kg AEDP): 8.98 % Dose/1% Body weight
% Dose/1% Body weight: Tibia (0.01 mg/kg AEDP): 11.28 % Dose/1% Body weight
% Dose: Urine (0.01 mg/kg AEDP): 20.97 % Dose
% Dose in Whole Organ: Blood (0.01 mg/kg EHDP): 3.19 % Dose
% Dose in Whole Organ: Kidneys (0.01 mg/kg EHDP): 0.43 % Dose
% Dose in Whole Organ: Liver (0.01 mg/kg EHDP): 0.74 % Dose
% Dose in Whole Organ: Marrow (0.01 mg/kg EHDP): 0.42 % Dose
% Dose in Whole Organ: One Femur (0.01 mg/kg EHDP): 2.83 % Dose
% Dose/1%-body weight: Blood (0.01 mg/kg EHDP): 0.456 % Dose/1%-body weight
% Dose/1%-body weight: Femur (0.01 mg/kg EHDP): 9.70 % Dose/1%-body weight
% Dose/1%-body weight: Kidney (0.01 mg/kg EHDP): 0.655 % Dose/1%-body weight
% Dose/1%-body weight: Liver (0.01 mg/kg EHDP): 0.206 % Dose/1%-body weight
% Dose/1%-body weight: Marrow (0.01 mg/kg EHDP): 0.192 % Dose/1%-body weight
% Dose: Urine (0.01 mg/kg EHDP): 23.66 % Dose
% Dose in Whole Organ: Blood (0.01 mg/kg MDP): 3.27 % Dose
% Dose in Whole Organ: Kidneys (0.01 mg/kg MDP): 0.34 % Dose
% Dose in Whole Organ: Liver (0.01 mg/kg MDP): 0.65 % Dose
% Dose in Whole Organ: Marrow (0.01 mg/kg MDP): 0.53 % Dose
% Dose in Whole Organ: Muscle (0.01 mg/kg MDP): 5.69 % Dose
% Dose in Whole Organ: One Femur (0.01 mg/kg MDP): 3.46 % Dose
% Dose/1% Body weight: Blood (0.01 mg/kg MDP): 0.47 % Dose/1% body weight
% Dose/1% Body weight: Femur (0.01 mg/kg MDP): 13.93 % Dose/1% body weight
% Dose/1% Body weight: Kidneys (0.01 mg/kg MDP): 0.54 % Dose/1% body weight
% Dose/1% Body weight: Liver (0.01 mg/kg MDP): 0.16 % Dose/1% body weight
% Dose/1% Body weight: Marrow (0.01 mg/kg MDP): 0.24 % Dose/1% body weight
% Dose/1% Body weight: Muscle (0.01 mg/kg MDP): 0.13 % Dose/1% body weight
% Dose/1% Body weight: Pelvis (0.01 mg/kg MDP): 13.55 % Dose/1% body weight
% Dose/1% Body weight: Spine (0.01 mg/kg MDP): 12.78 % Dose/1% body weight
% Dose/1% Body weight: Tibia (0.01 mg/kg MDP): 7.14 % Dose/1% body weight
% Dose/1% body weight: Ave Bone (0.01 mg/kg MDP): 11.85 % Dose/1% body weight
% Dose: Urine (0.01 mg/kg MDP): 10.3 % Dose
% Dose in Whole Organ: Blood (0.05 mg/kg AEDP): 2.50 % Dose
% Dose in Whole Organ: Kidneys (0.05 mg/kg AEDP): 0.353 % Dose
% Dose in Whole Organ: Liver (0.05 mg/kg AEDP): 0.613 % Dose
% Dose in Whole Organ: Marrow (0.05 mg/kg AEDP): 0.486 % Dose
% Dose in Whole Organ: Muscle (0.05 mg/kg AEDP): 5.09 % Dose
% Dose in Whole Organ: W. Femur (0.05 mg/kg AEDP): 3.51 % Dose
% Dose in Whole Organ: W. Tibia (0.05 mg/kg AEDP): 3.15 % Dose
% Dose/1% Body weight: Blood (0.05 mg/kg AEDP): 0.357 % Dose/1% Body weight
% Dose/1% Body weight: Bone Ave (0.05 mg/kg AEDP): 12.34 % Dose/1% Body weight
% Dose/1% Body weight: Femur (0.05 mg/kg AEDP): 12.62 % Dose/1% Body weight
% Dose/1% Body weight: Kidneys (0.05 mg/kg AEDP): 0.551 % Dose/1% Body weight
% Dose/1% Body weight: Liver (0.05 mg/kg AEDP): 0.134 % Dose/1% Body weight
% Dose/1% Body weight: Marrow (0.05 mg/kg AEDP): 0.221 % Dose/1% Body weight
% Dose/1% Body weight: Muscle (0.05 mg/kg AEDP): 0.118 % Dose/1% Body weight
% Dose/1% Body weight: Pelvis (0.05 mg/kg AEDP): 11.44 % Dose/1% Body weight
% Dose/1% Body weight: Spine (0.05 mg/kg AEDP): 11.60 % Dose/1% Body weight
% Dose/1% Body weight: Tibia (0.05 mg/kg AEDP): 13.69 % Dose/1% Body weight
% Dose: Urine (0.05 mg/kg AEDP): 11.95 % Dose
% Dose in Whole Organ: Blood (0.05 mg/kg EHDP): 3.39 % Dose
% Dose in Whole Organ: Kidneys (0.05 mg/kg EHDP): 0.46 % Dose
% Dose in Whole Organ: Liver (0.05 mg/kg EHDP): 0.77 % Dose
% Dose in Whole Organ: Marrow (0.05 mg/kg EHDP): 0.61 % Dose
% Dose in Whole Organ: One Femur (0.05 mg/kg EHDP): 3.33 % Dose
% Dose/1%-body weight: Blood (0.05 mg/kg EHDP): 0.485 % Dose/1%-body weight
% Dose/1%-body weight: Femur (0.05 mg/kg EHDP): 11.51 % Dose/1%-body weight
% Dose/1%-body weight: Kidney (0.05 mg/kg EHDP): 0.616 % Dose/1%-body weight
% Dose/1%-body weight: Liver (0.05 mg/kg EHDP): 0.210 % Dose/1%-body weight
% Dose/1%-body weight: Marrow (0.05 mg/kg EHDP): 0.291 % Dose/1%-body weight
% Dose: Urine (0.05 mg/kg EHDP): 13.4 % Dose
% Dose in Whole Organ: Blood (0.05 mg/kg MDP): 3.66 % Dose
% Dose in Whole Organ: Kidneys (0.05 mg/kg MDP): 0.46 % Dose
% Dose in Whole Organ: Liver (0.05 mg/kg MDP): 0.71 % Dose
% Dose in Whole Organ: Marrow (0.05 mg/kg MDP): 0.53 % Dose
% Dose in Whole Organ: Muscle (0.05 mg/kg MDP): 5.89 % Dose
% Dose in Whole Organ: One Femur (0.05 mg/kg MDP): 2.53 % Dose
% Dose/1% Body weight: Blood (0.05 mg/kg MDP): 0.52 % Dose/1% body weight
% Dose/1% Body weight: Femur (0.05 mg/kg MDP): 9.10 % Dose/1% body weight
% Dose/1% Body weight: Kidneys (0.05 mg/kg MDP): 0.9 % Dose/1% body weight
% Dose/1% Body weight: Liver (0.05 mg/kg MDP): 0.22 % Dose/1% body weight
% Dose/1% Body weight: Marrow (0.05 mg/kg MDP): 0.24 % Dose/1% body weight
% Dose/1% Body weight: Muscle (0.05 mg/kg MDP): 0.14 % Dose/1% body weight
% Dose/1% Body weight: Pelvis (0.05 mg/kg MDP): 8.33 % Dose/1% body weight
% Dose/1% Body weight: Spine (0.05 mg/kg MDP): 6.75 % Dose/1% body weight
% Dose/1% Body weight: Tibia (0.05 mg/kg MDP): 4.94 % Dose/1% body weight
% Dose/1% body weight: Ave Bone (0.05 mg/kg MDP): 7.29 % Dose/1% body weight
% Dose: Urine (0.05 mg/kg MDP): 23.16 % Dose
